Assay results published in ChEMBL document CHEMBL4251570, “Synthesis and biological evaluation of a novel β-D-2'-deoxy-2'-α-fluoro-2'-β-C-(fluoromethyl)uridine phosphoramidate prodrug for the treatment of hepatitis C virus infection” (Eur J Med Chem, 2018).
Active and inactive are the calls of the source. The calls are words filed in the database; no cut-off is given here.

Assays:
[1] = Cytotoxicity against human HuH7 cells after 72 hrs by CellTiter 96 AQueous one solution cell proliferation assay; format: cell-based, Huh-7
[2] = Drug level in Sprague-Dawley rat liver treated with at 50 mg/kg, po 2-(((S)-(((2R,3R,4R,5R)-5-(2,4-dioxo-3,4-dihydropyrimidin-1(2H)-yl)-4-fluoro-4-(fluoromethyl)-3-hydroxytetrahydrofuran-2-yl)methoxy) (phenoxy)phosphoryl)amino) propanoate assessed as compound formation by HPLC-MS/MS analysis; format: ADME, organism-based; details: in vivo
Hepatitis C virus [3] = assay: Antiviral activity against Hepatitis C virus JFH-1 infected in human HuH7 cells assessed as inhibition of viral RNA replication after 3 days by quantitative real-time RT-PCR analysis; format: functional, organism-based; details: for Activity: Hepacivirus hominis; for EC50 / EC90: JFH-1, Huh-7, 72 h
Hepatitis C virus [4] = assay: Antiviral activity against Hepatitis C virus JFH-1 infected in human HuH7 cells assessed as inhibition of viral core protein levels at 1 uM by Western blot method; format: functional, organism-based; details: Hepacivirus hominis
Hepatitis C virus [5] = assay: Antiviral activity against Hepatitis C virus genotype 1b infected in human HuH7 cells after 48 hrs by luciferase reporter gene assay; format: functional, organism-based, Hepacivirus hominis; details: Huh-7, 48 h
Hepatitis C virus [6] = assay: Antiviral activity against Hepatitis C virus genotype 1a infected in human HuH7 cells after 48 hrs by luciferase reporter gene assay; format: functional, organism-based, Hepacivirus hominis; details: subtype 1a, Huh-7, 48 h
Hepatitis C virus [7] = assay: Antiviral activity against Hepatitis C virus genotype 2a infected in human HuH7 cells after 48 hrs by luciferase reporter gene assay; format: functional, organism-based, Hepacivirus hominis; details: Huh-7, 48 h
Hepatitis C virus [8] = assay: Antiviral activity against Hepatitis C virus genotype 1b expressing NS5B RNA dependent RNA polymerase S282T mutant infected in human HuH7 cells after 48 hrs by luciferase reporter gene assay; format: functional, organism-based, Hepacivirus hominis; details: Huh-7, 48 h
Mus musculus [9] = assay: Acute toxicity in Kunming mouse assessed as mortality at 2 to 4 g/kg, po administered as single dose measured after 15 days; format: organism-based; details: in vivo, 360 h
Mus musculus [10] = assay: Acute toxicity in Kunming mouse assessed as change in body weight at 2 to 4 g/kg, po administered as single dose measured after 15 days; format: organism-based; details: in vivo, 360 h
Mus musculus [11] = assay: Acute toxicity in Kunming mouse assessed as induction of damage to heart at 2 to 4 g/kg, po administered as single dose measured after 15 days; format: organism-based; details: in vivo, 360 h
Mus musculus [12] = assay: Acute toxicity in Kunming mouse assessed as induction of damage to liver at 2 to 4 g/kg, po administered as single dose measured after 15 days; format: organism-based; details: in vivo, 360 h
Mus musculus [13] = assay: Acute toxicity in Kunming mouse assessed as induction of damage to spleen at 2 to 4 g/kg, po administered as single dose measured after 15 days; format: organism-based; details: in vivo, 360 h
Mus musculus [14] = assay: Acute toxicity in Kunming mouse assessed as induction of induction of damage to lung at 2 to 4 g/kg, po administered as single dose measured after 15 days; format: organism-based; details: in vivo, 360 h
Mus musculus [15] = assay: Acute toxicity in Kunming mouse assessed as induction of damage to kidney at 2 to 4 g/kg, po administered as single dose measured after 15 days; format: organism-based; details: in vivo, 360 h
[16] = Half life in simulated gastric fluid at pH 1.2 at 1 mg/ml incubated up to 24 hrs at 37 degC by HPLC analysis; format: ADME
[17] = Half life in simulated intestinal fluid at pH 7.4 at 1 mg/ml incubated up to 24 hrs at 37 degC by HPLC analysis; format: ADME
[18] = Half life in human plasma at 1 mg/ml incubated up to 24 hrs at 37 degC by HPLC analysis; format: ADME, cell-free
[19] = Half life in human liver S9 fraction at 1 mg/ml incubated up to 120 mins at 37 degC by HPLC analysis; format: ADME, subcellular
[20] = AUC (0 to t) in Sprague-Dawley rat liver assessed as 1-((2R,3R,4R,5R)-3-fluoro-3-(fluoromethyl)-4-hydroxy-5-(hydroxymethyl)tetrahydrofuran-2-yl)pyrimidine-2,4(1H,3H)-dione triphosphate at 50 mg/kg administered via oral gavage by HPLC-MS/MS analysis; format: ADME, organism-based; details: in vivo
[21] = AUC (0 to infinity) in Sprague-Dawley rat liver assessed as 1-((2R,3R,4R,5R)-3-fluoro-3-(fluoromethyl)-4-hydroxy-5-(hydroxymethyl)tetrahydrofuran-2-yl)pyrimidine-2,4(1H,3H)-dione triphosphate at 50 mg/kg administered via oral gavage by HPLC-MS/MS analysis; format: ADME, organism-based; design: dose 50 mg/kg, time infinity, route oral; details: in vivo
[22] = Half life in Sprague-Dawley rat liver assessed as 1-((2R,3R,4R,5R)-3-fluoro-3-(fluoromethyl)-4-hydroxy-5-(hydroxymethyl)tetrahydrofuran-2-yl)pyrimidine-2,4(1H,3H)-dione triphosphate at 50 mg/kg administered via oral gavage by HPLC-MS/MS analysis; format: ADME, organism-based; details: in vivo
[23] = Tmax in Sprague-Dawley rat liver assessed as 1-((2R,3R,4R,5R)-3-fluoro-3-(fluoromethyl)-4-hydroxy-5-(hydroxymethyl)tetrahydrofuran-2-yl)pyrimidine-2,4(1H,3H)-dione triphosphate at 50 mg/kg administered via oral gavage by HPLC-MS/MS analysis; format: ADME, organism-based; details: in vivo
[24] = Cmax in Sprague-Dawley rat liver assessed as 1-((2R,3R,4R,5R)-3-fluoro-3-(fluoromethyl)-4-hydroxy-5-(hydroxymethyl)tetrahydrofuran-2-yl)pyrimidine-2,4(1H,3H)-dione triphosphate at 50 mg/kg administered via oral gavage by HPLC-MS/MS analysis; format: ADME, organism-based; design: dose 50 mg/kg, route oral; details: in vivo
Mus musculus [25] = assay: Acute toxicity in Kunming mouse assessed as induction of observable clinical toxic signs at 2 to 4 g/kg, po administered as single dose measured after 15 days; format: organism-based; details: in vivo, 360 h

In the case of `O=c1ccn([C@@H]2O[C@H](CO)[C@@H](O)[C@]2(F)CF)c(=O)[nH]1`, the CC50 at 72 h [1] is reported as > 1000 µM.

With `O=c1ccn([C@@H]2O[C@H](COP(=O)(O)OP(=O)(O)OP(=O)(O)O)[C@@H](O)[C@]2(F)CF)c(=O)[nH]1` the Drug metabolism [2] was “Metabolite_Detected”.

With `CC(C)OC(=O)[C@H](C)N[P@](=O)(OC[C@H]1O[C@@H](n2ccc(=O)[nH]c2=O)[C@](C)(F)[C@@H]1O)Oc1ccccc1` [SOFOSBUVIR] the CC50 at 72 h [1] was > 1000 µM, the Activity (Hepatitis C virus [3]) was “Dose-dependent effect” and the EC50 (Hepatitis C virus [3]) was 0.27 µM. For the same molecule, the EC90 (Hepatitis C virus [3]) was 0.83 µM.

In the case of `CC(C)OC(=O)[C@H](C)N[P@](=O)(OC[C@H]1O[C@@H](n2ccc(=O)[nH]c2=O)[C@@](F)(CF)[C@@H]1O)Oc1ccccc1`, the CC50 at 72 h [1] is reported as > 1000 µM, the Activity (Hepatitis C virus [3]) is reported as “Dose-dependent effect” and the EC50 (Hepatitis C virus [3]) is reported as 0.18 µM. For the same molecule, the EC90 (Hepatitis C virus [3]) was 0.74 µM, the Activity (Hepatitis C virus [4]) was “Active” and the EC50 (Hepatitis C virus [5]) was 0.24 µM. The EC90 (Hepatitis C virus [5]) was 0.5 µM, the EC50 (Hepatitis C virus [6]) was 0.31 µM and the EC90 (Hepatitis C virus [6]) was 1.26 µM. It also gave an EC50 (Hepatitis C virus [7]) of 0.54 µM, an EC90 (Hepatitis C virus [7]) of 3.05 µM and an EC50 (Hepatitis C virus [8]) of 1.13 µM. For the same molecule, the EC90 (Hepatitis C virus [8]) was 7.7 µM, the Activity (Mus musculus [9]) was “Non-Toxic” and the Activity (Mus musculus [10]) was “Non-Toxic”. For the same molecule, the Activity (Mus musculus [11]) was “Non-Toxic”, the Activity (Mus musculus [12]) was “Non-Toxic” and the Activity (Mus musculus [13]) was “Non-Toxic”. The Activity (Mus musculus [14]) was “Non-Toxic”, the Activity (Mus musculus [15]) was “Non-Toxic” and the half-life at 1 mg/ml [16] was > 24 h. For the same molecule, the half-life at 1 mg/ml [17] was > 24 h, the half-life at 1 mg/ml [18] was 17.3 h and the half-life [19] was 0.49 h. It also gave an AUCt [20] of 14540 ng·h/g, an AUC [21] of 15655 ng·h/g and a t1/2 [22] of 3.73 h. The Tmax [23] was 5.83 h, the Cmax [24] was 1895 ng/g and the Activity (Mus musculus [25]) was “Non-Toxic”.
